The results in this text go back to US10519177B2, “Heterocyclic compounds and uses thereof” (Plexxikon Inc., priority 2013, dated 2019).

SMILES strings stand for the structures.

One assay addresses BRD4-BD1 (44-164) (Homo sapiens (Human), UniProt O60885). The experiment in a line: Alphascreen binding assay BRD4-BD1. Particulars: BRD4(1) H4; read-out: Biochemical activity (IC50 μM) BRD4(1) H4. How it is done:
Binding of compounds of formula (I) with bromodomain 2, 3 4 was assessed using Alphascreen binding assay. The inhibition of the interaction between bromodomain and its acetylated target protein (Filippakopoulos P et al. 2012) was measured quantitatively using recombinant BRD proteins, an acetylated Histone 4 peptide and AlphaScreen™ technology. In absence of inhibition the BRD protein bound to AlphaScreen™ nickel chelate acceptor beads can interact with the acetylated Histone 4 peptide which is immobilized by the AlphaScreen™ Streptavidin coated beads. This interaction brings donor and acceptor beads in proximity. The close proximity allows the singlet oxygen produced by laser excitation of the donor beads to reach the acceptor beads and generate a luminescence signal.
Recombinant human bromodomains containing the N-terminal bromodomain (BRD2-BD1 (71-194), BRD3-BD1 (24-144) and BRD4-BD1 (44-164)) or dual bromodomains (BRD4-BD12 (1-477), BRD4-BD12 (1-472)) were prepared and purified as described in protein expression and purification session. The peptide is human Histone H41-21K5AcK8AcK12AcK16Ac-Biotin (Anaspec CA, USA).
Protocol for BRD2, BRD3 and BRD4 assay: All components are prepared in buffer composed of 50 mM HEPES pH 7.5, 100 mM NaCl, 0.01% bovine serum albumin (“BSA”), 0.01% Triton X-100, 2 mM dithiothreitol (“DTT”). 7 μL of Bromodomain protein and 7 μL of peptide are added to wells containing 1 μL of various concentrations of test compounds of formula (I) or DMSO vehicle in an Alphaplate (PerkinElmer GA, USA) and incubated for 1 hour at room temperature. 4 μL donor and acceptor bead mixture is then added with final concentrations of 7.5 μg/ml. 30 minutes after bead addition, Alpha signal is read on the Envision spectrometer (λEx 680 nm, λEm 520-620 nm). Final concentrations of bromodomain proteins and peptide are as shown below.
All data was normalized to the mean of 16 high and 16 low control wells on each plate. A four parameter curve fit of the following formula was then applied: Y=a+(b−a)/(1+(x/c)^d) Where ‘a’ is the minimum, ‘b’ is the maximum, ‘c’ is the pIC50 and ‘d’ is the Hill slope. Protein Expression and Purification
Recombinant human bromodomains containing the N-terminal bromodomain (BRD2-BD1 (71-194), BRD3-BD1 (24-144) and BRD4-BD1 (44-164)) or dual bromodomains (BRD4-BD12 (1-477), BRD4-BD12 (1-472)) were expressed in E. coli cells (in a modified pET vector) with an N-terminal six-His tag and purified using a combination of both IMAC (Ni-affinity) and size exclusion chromatography steps.
Recombinant BRD proteins were expressed using the E. coli strain BL21-CodonPlus (DE3) (Agilent Technologies CA, USA). Cells were grown in Terrific Broth (TB) media to an OD600 of 1.2 at 37° C. at which temperature was reduced to 25° C., protein was induced with 1.0 mM ispropyl-β-D-thiogalactopyranoside (“IPTG”) for 12-18 hours and harvested by centrifugation at 8000×g for 20 minutes. Cells were re-suspended in 0.1M K2PO4 pH 8.0, 250 mM NaCl, 10% Glycerol, 0.75% NP-40, 25 mM Imidazole, 5 mM beta-mercaptoethanol (“BME”) with 0.2 mg/ml Lysosyme, 2.0 mM phenylmethanesulfonyl fluoride (“PMSF”), 25 μg/ml DNAse I, incubated on ice for 30 minutes and lyzed with a cell disruptor (MicroFluidics MA, USA). The lysate was clarified by centrifugation at 20,000×g for 2 hours. The protein was captured with Ni-NTA resin (Life Technologies, USA). Contaminating proteins were washed off with 25 mM Tris-HCl pH 8.3, 250 mM NaCl, 12% Glycerol and 50 mM Imidazole. Following 3× wash steps, protein was eluted step wise using a 50 mM HEPES pH 7.5, 500 mM NaCl and 400 mM Imidazole. The protein was further purified using Gel Filtration column 26/600 Superdex 200 (GE Biosciences NJ, USA) in 50 mM HEPES pH 7.5, 250 mM NaCl. The protein was aliquoted and flash-frozen in liquid Nitrogen.
(In Alpha technology, singlet oxygen from a donor bead excites a nearby acceptor bead.)

The subject of a further assay is bromodomain. Put plainly: at least one of the bromodomain cell assays of Example 57. Particulars: at least one of the bromodomain cell assays described in Example 57; read-out: IC50 in at least one of the bromodomain cell assays. The format is cell-based.
Another assay deals with BRD4-BD12 (1-477) (Homo sapiens (Human), UniProt O60885). The experiment in a line: Alphascreen binding assay BRD4-BD12. Particulars: BRD4(1 2) H4; read-out: Biochemical activity (IC50 μM) BRD4(1 2) H4. The method, boiled down:
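First, compound was preincubated 1 h at room temperature with the His-tagged BRD4 protein (BD1 44-164 or tandem BD12 1-477) and acetylated H4 peptide. Next, donor and acceptor beads were added at 7.5 μg/ml final. After 30 min, AlphaScreen emission was recorded.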

Another assay has as its system MV-4-11 cells. The experiment in a line: Oncology cell growth assay MV-4-11 (CellTiter Glo). Particulars: Homo sapiens, MV4-11, 72 h; MV-4-11, 3d growth; read-out: Cell activity (IC50 μM) MV-4-11 3d-Growth. The format is cell-based. The procedure, abridged:
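MV-4-11 AML cells (MLL-AF4), 3000 per well, exposed to 8-point 1:3 compound titration from 10 μM top concentration (0.2% DMSO) for 72 h. Viability by CellTiter Glo luminescence, normalized to DMSO controls; pIC50 from four-parameter curve fit.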

The IC50 is the concentration that inhibits the measured activity by half. For `Cc1noc(C)c1-c1cnc2[nH]cc(Cc3cccnc3)c2c1` [P-0003, 3,5-dimethyl-4-[3-(3-pyridylmethyl)-1H-pyrrolo[2,3-b]pyridin-5-yl]isoxazole], the IC50 at BRD4-BD1 (44-164) was < 1 µM.
On the same count and under the same terms, for `Cc1noc(C)c1-c1cnc2[nH]c(C)c(Cc3cccnc3)c2c1` [P-0005, 3,5-dimethyl-4-[2-methyl-3-(3-pyridylmethyl)-1H-pyrrolo[2,3-b]pyridin-5-yl]isoxazole] the value was < 1 µM.
Regarding `COC(=O)c1ccc(-c2cn(CC3CC4(CCC4)C3)c3cc(-c4c(C)noc4C)cnc23)cc1` [P-0602, methyl 4-[6-(3,5-dimethylisoxazol-4-yl)-1-(spiro[3.3]heptan-6-ylmethyl)pyrrolo[3,2-b]pyridin-3-yl]benzoate], the 50% inhibitory concentration (IC50) is < 10000 nM with bromodomain, < 1 µM on BRD4-BD12 (1-477) and < 1 µM with MV-4-11 cells.
`Cc1ccc(-c2cn(CC3CCC(F)(F)CC3)c3cc(-c4c(C)noc4C)cnc23)cc1` [P-0604, 4-[1-[(4,4-difluorocyclohexyl)methyl]-3-(p-tolyl)pyrrolo[3,2-b]oyridin-6-yl]-3,5-dimethyl-isoxazole]: the half-inhibitory concentration (IC50) in the assay on bromodomain was < 10000 nM; on BRD4-BD12 (1-477), < 1 µM; in the assay with MV-4-11 cells it was < 1 µM.
As for `COc1cc(-c2cn(CC3CCCCC3)c3cc(-c4c(C)noc4C)cnc23)ccc1C(=O)O` [P-0700, 4-[1-(cyclohexylmethyl)-6-(3,5-dimethylisoxazol-4-yl)pyrrolo[3,2-b]pyridin-3-yl]-2-methoxy-benzoic acid], the IC50 is < 10000 nM in the assay with bromodomain, < 1 µM at BRD4-BD12 (1-477) and < 1 µM with MV-4-11 cells.
On to `COCc1ccc(-c2cn(CC3CCCCC3)c3cc(-c4c(C)noc4C)cnc23)cc1` [P-0705, 4-[1-(cyclohexylmethyl)-3-[4-(methoxymethyl)phenyl]pyrrolo[3,2-b]pyridin-6-yl]-3,5-dimethyl-isoxazole], for which the IC50 in the assay with bromodomain was < 10000 nM; on BRD4-BD12 (1-477), < 1 µM; with MV-4-11 cells, < 1 µM.
On to `Cc1noc(C)c1-c1cnc2c(-c3ccc(C(=O)OC(C)C)cc3)cn(CC3CCCCC3)c2c1` [P-0708, isopropyl 4-[1-(cyclohexylmethyl)-6-(3,5-dimethylisoxazol-4-yl)pyrrolo[3,2-b]pyridin-3-yl]benzoate], for which the results for the IC50 in the assay with bromodomain, at BRD4-BD12 (1-477) and in the assay with MV-4-11 cells were < 10000 nM, < 1 µM and < 1 µM, respectively.
`Cc1noc(C)c1-c1cnc2c(-c3ccc([N+](=O)[O-])nc3)cn(CC3CCCCC3)c2c1` [P-0710, 4-[1-(cyclohexylmethyl)-3-(6-nitro-3-pyridyl)pyrrolo[3,2-b]pyridin-6-yl]-3,5-dimethyl-isoxazole]: the 50% inhibitory concentration (IC50) with bromodomain is < 10000 nM; on BRD4-BD12 (1-477), < 1 µM; in the assay with MV-4-11 cells, < 1 µM.
`Cc1noc(C)c1-c1cnc2c(-c3ccc(C(=O)O)cc3)cn([C@@H](c3ccccc3)c3ccccn3)c2c1` [P-0711, 4-[6-(3,5-dimethylisoxazol-4-yl)-1-[(S)-phenyl(2-pyridyl)methyl]pyrrolo[3,2-b]pyridin-3-yl]benzoic acid]: the concentration for half-maximal inhibition (IC50) in the assay with bromodomain was < 10000 nM; at BRD4-BD12 (1-477), < 1 µM; in the assay with MV-4-11 cells, < 1 µM.
With `Cc1noc(C)c1-c1cnc2c(-c3ccc(C(=O)O)cc3)cn([C@H](c3ccccc3)c3ccccn3)c2c1` [P-0722, 4-[6-(3,5-dimethylisoxazol-4-yl)-1-[(R)-phenyl(2-pyridyl)methyl]pyrrolo[3,2-b]pyridin-3-yl]benzoic acid], the IC50 is < 10000 nM in the assay on bromodomain, < 1 µM on BRD4-BD12 (1-477) and < 1 µM in the assay on MV-4-11 cells.
For `Cc1noc(C)c1-c1cnc2c(-c3ccc(C(=O)O)cc3)cn(CC3(C)CCOCC3)c2c1` [P-0774, 4-[6-(3,5-dimethylisoxazol-4-yl)-1-[(4-methyltetrahydropyran-4-yl)methyl]pyrrolo[3,2-b]pyridin-3-yl]benzoic acid], the IC50 with bromodomain is < 10000 nM; on BRD4-BD12 (1-477), < 1 µM; in the assay on MV-4-11 cells it was < 1 µM.
For `COc1cc(-c2cn(CC3(C)CCOCC3)c3cc(-c4c(C)noc4C)cnc23)ccc1C(=O)O` [P-0775, 4-[6-(3,5-dimethylisoxazol-4-yl)-1-[(4-methyltetrahydrpyran-4-yl)methyl]pyrrolo[3,2-b]pyridin-3-yl]-2-methoxy-benzoic acid], the figures for the 50% inhibitory concentration (IC50) in the assay on bromodomain, at BRD4-BD12 (1-477) and in the assay with MV-4-11 cells were < 10000 nM, < 1 µM and < 1 µM, respectively.
`Cc1noc(C)c1-c1cnc2c(-c3ccc(CC(=O)O)cc3)cn(CC3(C)CCOCC3)c2c1` [P-0776, 2-[4-[6-(3,5-dimethylisoxazol-4-yl)-1-[(4-methyltetrahydrpyran-4-yl)methyl]pyrrolo[3,2-b]pyridin-3-yl]phenyl]acetic acid]: the concentration for half-maximal inhibition (IC50) in the assay on bromodomain was < 10000 nM; on BRD4-BD12 (1-477), < 1 µM; with MV-4-11 cells, 1 to 10 µM.
In the case of `Cc1noc(C)c1-c1cnc2c(-c3ccc(C(C)(C)C(=O)O)cc3)cn(CC3(C)CCOCC3)c2c1` [P-0778, 2-[4-[6-(3,5-dimethylisoxazol-4-yl)-1-[(4-methyltetrahydropyran-4-yl)methyl]pyrrolo[3,2-b]pyridin-3-yl]phenyl]-2-methyl-propanoic acid], the IC50 in the assay on bromodomain was < 10000 nM; at BRD4-BD12 (1-477), < 1 µM; in the assay with MV-4-11 cells, 1 to 10 µM.
With `Cc1ccc(-c2cn(CC3(C)CCOCC3)c3cc(-c4c(C)noc4C)cnc23)cc1` [P-0794, 3,5-dimethyl-4-[1-[(4-methyltetrahydropyran-4-yl)methyl]-3-(p-tolyl)pyrrolo[3,2-b]pyridin-6-yl]isoxazole], the IC50 in the assay with bromodomain was < 10000 nM; at BRD4-BD12 (1-477), < 1 µM; in the assay on MV-4-11 cells it was 1 to 10 µM.
In the case of `Cc1noc(C)c1-c1cnc2c(-c3ccc(C(C)(C)C)cc3)cn(CC3CCC(F)(F)CC3)c2c1` [P-0802, 4-[3-(4-tert-butylphenyl)-1-[(4,4-difluorocyclohexyl)methyl]pyrrolo[3,2-b]pyridin-6-yl]-3,5-dimethyl-isoxazole], the IC50 in the assay with bromodomain is < 10000 nM; on BRD4-BD12 (1-477) it was < 1 µM; in the assay with MV-4-11 cells, 1 to 10 µM.
On the same counts, the results for `Cc1ccc(-c2cn(Cc3ccccn3)c3cc(-c4c(C)noc4C)cnc23)cc1` [P-0805, 3,5-dimethyl-4-[3-(p-tolyl)-1-(2-pyridylmethyl)pyrrolo[3,2-b]pyridin-6-yl]isoxazole] are < 10000 nM, < 1 µM and < 1 µM.
With `Cc1noc(C)c1-c1cnc2c(-c3ccc(C(C)(C)C)cc3)cn([C@@H](C)c3ccccn3)c2c1` [P-0806, 4-[3-(4-tert-butylphenyl)-1-[(1S)-1-(2-pyridyl)ethyl]pyrrolo[3,2-b]pyridin-6-yl]-3,5-dimethyl-isoxazole], the figures for the IC50 in the assay on bromodomain, on BRD4-BD12 (1-477) and with MV-4-11 cells were < 10000 nM, < 1 µM and 1 to 10 µM, respectively.
